In general, IC50 refers to the concentration at which inhibition is half-maximal.

Our source for the IC50 values is patent publication US20260176265A1 (Cancer Research Technology Limited, priority 2022, published 2026).

Assay [1] concerns the target CtermHisTag-mEGFR Triple Mutant - C797S, L858R, T790M (Homo sapiens, UniProt P00533, C797S/L858R/T790M). As to the kind of experiment: TR-FRET probe displacement assay, EGFR triple mutant. It is filed as binding. To be noted: T790M 1.25 nM, probe 100 nM, 30 mins room temperature. How it is done: (§1) Compounds (dissolved to 100 mM in DMSO) were dispensed into black low volume 384 well assay plates (Corning) over a final concentration range of 100000, 30000, 10000, 3000, 1000, 300, 100, 30, 10, and 3 nM using an Echo 550 (Labcyte). Positive control compound and DMSO as a negative control were dispensed into the first and last well, respectively. […]. Plates were read using a PheraStar FS (BMG Labtech) at Ex337 nm Ex490/520 nm. The data were analysed using Graphpad Prism/Dotmatics Studies Software. Assays conducted in technical replicate and repeated as a biological duplicate.
(In general: Time-resolved FRET reads energy transfer from a long-lived donor to a nearby acceptor.)

Assay [2] addresses CtermHisTag-mEGFR Wild type (Homo sapiens, UniProt P00533). As to the kind of experiment: TR-FRET probe displacement assay, EGFR wild type. To be noted: EGFR wild type 1.25 nM, probe 100 nM, 30 mins room temperature. The format is binding. The procedure:
as §1

Assay [3] concerns the target T1, Phospho-EGFR (Tyr1068) in H1975 cells (Homo sapiens, UniProt P00533, L858R/T790M).
T1 construct: host or cells: H1975
As to the kind of experiment: HTRF pEGFR/total EGFR assay in H1975 cells. It is filed as cell-based. To be noted: compound 3 hours, ratio pEGFR/total EGFR. How it is done:
H1975 cells (ATCC CRL-5908) were plated at 20,000 cells per well in 96 well plates and placed at 37° C. 5% CO2. Once adhered (after 24h) cells were treated with compounds dissolved in DMSO at a final concentration of 0.1% DMSO in media. Compounds were diluted in media then added to cells for 3 hours in duplicate. Compound and media were removed from the cells, then 50ul of HTRF lysis buffer is added (lysis buffer was diluted from 4× stock to 1× in DI water, with 1% blocking agent also added). Cells were lysed on a plate shaker (2000 rpm) for 30 minutes at room temperature. pEGFR expression was monitored using the Cisbio Phospho-EGFR (Tyri068) cellular kit (64EG1 PEH). Total EGFR expression was monitored using the Cisbio Total EGFR cellular kit (64NG1 PEH) as per manufacturer's instructions. Fluorescence emission was read at two different wavelengths (665 nm and 620 nm) on a PheraStar. Results were calculated as ratio of pEGFR/total EGFR and then percentage of 0 uM control.

Assay [4] has as its target T2, Phospho-EGFR (Tyr1068) in H1975 C797S cells (Homo sapiens, UniProt P00533, C797S/L858R/T790M).
T2 construct: endogenous in cells; host or cells: H1975 C797S (CRISPR-edited in house from ATCC CRL-5908)
As to the kind of experiment: HTRF pEGFR/total EGFR assay in H1975 C797S cells. The format is cell-based. To be noted: H1975 C797S cells (CRISPR), compound 3 hours, ratio pEGFR/total EGFR. How it is done:
H1975 C797S cells (ATCC CRL-5908) were genetically engineered by CRISPR editing of EGFR C797S in house and validated by NGS. Cells were plated at 20,000 cells per well in 96 well plates and placed at 37° C. 5% CO2. Once adhered (after 24h) cells were treated with compounds dissolved in DMSO at a final concentration of 0.1% DMSO in media. Compounds were diluted in media then added to cells for 3 hours in duplicate. Compound and media were removed from the cells, then 50 ul of HTRF lysis buffer was added (lysis buffer was diluted from 4× stock to 1× in DI water, with 1% blocking agent also added). Cells were lysed on a plate shaker (2000 rpm) for 30 minutes at room temperature. pEGFR expression was monitored using the Cisbio Phospho-EGFR (Tyr1068) cellular kit (64EG1PEH). Total EGFR expression was monitored using the Cisbio Total EGFR cellular kit (64NG1PEH) as per manufacturer's instructions. Fluorescence emission was read at two different wavelengths (665 nm and 620 nm) on a PheraStar. Results were calculated as ratio of pEGFR/total EGFR and then percentage of 0 uM control.

Assay [5] has as its target T3, Phospho-EGFR (Tyr1068) in A431 cells (Homo sapiens, UniProt P00533).
T3 construct: endogenous in cells; host or cells: A431
The assay can be described thus: HTRF pEGFR/total EGFR assay in A431 cells (EGF stimulated). The format is cell-based. To be noted: compound 2.5 hours then 100 ng/ml EGF 30 mins, ratio pEGFR/total EGFR. The procedure: Cells were plated at 20,000 cells per well in 96 well plates and placed at 37° C. 5% CO2. Once adhered (after 24h) cells were treated with compounds dissolved in DMSO at a final concentration of 0.1% DMSO in media. Compounds were diluted in media then added to cells for 2.5 hours in duplicate, 100 ng/ml EGF (ThermoFisher, PHG0311 was is added to all compound treated cells as well as a control for 30 mins. Compound and media were removed from the cells, then 50ul of HTRF lysis bufferwas added (lysis bufferwas diluted from 4× stock to 1× in DI water, with 1% blocking agent also added). Cells were lysed on a plate shaker (2000 rpm) for 30 minutes at room temperature. pEGFR expression was monitored using the Cisbio Phospho-EGFR (Tyr1068) cellular kit (64EG1PEH). Total EGFR expression was monitored using the Cisbio Total EGFR cellular kit (64NG1PEH) as per manufacturer's instructions. Fluorescence emission was read at two different wavelengths (665 nm and 620 nm) on a PheraStar. Results were calculated as ratio of pEGFR/total EGFR and then percentage of OuM control.

Some results are limits rather than exact numbers.

T1 sequence (P00533 25-1210 T790M/L858R): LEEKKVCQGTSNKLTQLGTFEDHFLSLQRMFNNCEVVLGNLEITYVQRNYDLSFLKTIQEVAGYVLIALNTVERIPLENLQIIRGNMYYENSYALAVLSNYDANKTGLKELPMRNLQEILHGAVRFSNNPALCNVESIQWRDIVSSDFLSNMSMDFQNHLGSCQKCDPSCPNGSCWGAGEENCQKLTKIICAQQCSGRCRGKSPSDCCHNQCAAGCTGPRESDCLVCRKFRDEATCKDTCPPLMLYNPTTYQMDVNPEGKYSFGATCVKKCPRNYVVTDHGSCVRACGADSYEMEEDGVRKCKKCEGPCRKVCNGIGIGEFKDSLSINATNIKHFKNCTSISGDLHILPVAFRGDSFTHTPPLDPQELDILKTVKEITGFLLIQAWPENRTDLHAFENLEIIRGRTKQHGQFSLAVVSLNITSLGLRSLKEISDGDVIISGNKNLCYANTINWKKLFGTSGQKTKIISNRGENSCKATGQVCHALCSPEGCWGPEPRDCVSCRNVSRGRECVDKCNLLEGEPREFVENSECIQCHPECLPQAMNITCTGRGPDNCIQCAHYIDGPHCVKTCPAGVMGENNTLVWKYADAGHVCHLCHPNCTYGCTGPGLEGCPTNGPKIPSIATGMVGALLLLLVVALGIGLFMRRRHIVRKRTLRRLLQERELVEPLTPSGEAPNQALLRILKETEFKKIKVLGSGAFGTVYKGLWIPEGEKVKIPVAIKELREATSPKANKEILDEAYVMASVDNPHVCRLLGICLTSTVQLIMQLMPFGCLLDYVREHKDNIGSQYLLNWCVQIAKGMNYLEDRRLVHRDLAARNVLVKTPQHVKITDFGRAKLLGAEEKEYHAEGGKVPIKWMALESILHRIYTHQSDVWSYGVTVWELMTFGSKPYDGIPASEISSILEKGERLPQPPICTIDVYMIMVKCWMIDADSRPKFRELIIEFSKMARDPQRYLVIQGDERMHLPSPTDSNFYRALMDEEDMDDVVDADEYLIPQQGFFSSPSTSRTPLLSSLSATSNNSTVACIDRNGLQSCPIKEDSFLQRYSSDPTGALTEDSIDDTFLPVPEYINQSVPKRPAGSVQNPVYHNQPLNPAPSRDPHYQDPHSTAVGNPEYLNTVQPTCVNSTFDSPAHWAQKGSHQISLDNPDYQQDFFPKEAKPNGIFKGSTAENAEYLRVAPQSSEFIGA
T3 sequence (P00533 25-1210): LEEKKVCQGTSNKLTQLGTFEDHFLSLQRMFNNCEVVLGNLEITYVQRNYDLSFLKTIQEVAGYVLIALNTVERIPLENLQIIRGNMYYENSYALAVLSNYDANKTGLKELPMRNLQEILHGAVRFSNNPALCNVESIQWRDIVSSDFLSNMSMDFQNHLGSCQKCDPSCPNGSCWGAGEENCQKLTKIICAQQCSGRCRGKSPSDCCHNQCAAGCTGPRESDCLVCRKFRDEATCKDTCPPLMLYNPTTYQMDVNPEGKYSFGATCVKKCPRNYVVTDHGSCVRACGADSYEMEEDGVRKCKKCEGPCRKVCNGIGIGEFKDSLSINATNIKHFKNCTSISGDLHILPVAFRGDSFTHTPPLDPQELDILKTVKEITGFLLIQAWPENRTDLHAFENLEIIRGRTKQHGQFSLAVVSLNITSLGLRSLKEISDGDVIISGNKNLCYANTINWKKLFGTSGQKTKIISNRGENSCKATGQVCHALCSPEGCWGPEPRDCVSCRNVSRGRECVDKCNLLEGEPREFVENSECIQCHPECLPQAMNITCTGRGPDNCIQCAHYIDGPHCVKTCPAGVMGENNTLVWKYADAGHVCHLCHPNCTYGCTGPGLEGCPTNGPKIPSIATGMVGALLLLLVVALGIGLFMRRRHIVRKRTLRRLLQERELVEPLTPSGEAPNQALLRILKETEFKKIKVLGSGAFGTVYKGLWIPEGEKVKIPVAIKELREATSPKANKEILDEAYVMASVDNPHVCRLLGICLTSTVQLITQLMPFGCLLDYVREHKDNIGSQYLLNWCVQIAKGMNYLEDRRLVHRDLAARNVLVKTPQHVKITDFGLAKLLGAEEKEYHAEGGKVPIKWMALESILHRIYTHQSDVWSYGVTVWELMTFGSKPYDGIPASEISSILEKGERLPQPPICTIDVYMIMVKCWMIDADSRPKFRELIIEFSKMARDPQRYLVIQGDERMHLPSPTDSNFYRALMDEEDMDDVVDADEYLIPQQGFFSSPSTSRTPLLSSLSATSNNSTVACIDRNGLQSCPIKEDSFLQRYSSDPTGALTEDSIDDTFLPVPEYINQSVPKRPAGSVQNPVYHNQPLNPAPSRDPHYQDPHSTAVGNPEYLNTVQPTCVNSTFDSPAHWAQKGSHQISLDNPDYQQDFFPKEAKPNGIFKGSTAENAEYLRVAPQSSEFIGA
CtermHisTag-mEGFR Wild type, sequence (P00533 25-1210): as above
T2 sequence (P00533 25-1210 T790M/C797S/L858R): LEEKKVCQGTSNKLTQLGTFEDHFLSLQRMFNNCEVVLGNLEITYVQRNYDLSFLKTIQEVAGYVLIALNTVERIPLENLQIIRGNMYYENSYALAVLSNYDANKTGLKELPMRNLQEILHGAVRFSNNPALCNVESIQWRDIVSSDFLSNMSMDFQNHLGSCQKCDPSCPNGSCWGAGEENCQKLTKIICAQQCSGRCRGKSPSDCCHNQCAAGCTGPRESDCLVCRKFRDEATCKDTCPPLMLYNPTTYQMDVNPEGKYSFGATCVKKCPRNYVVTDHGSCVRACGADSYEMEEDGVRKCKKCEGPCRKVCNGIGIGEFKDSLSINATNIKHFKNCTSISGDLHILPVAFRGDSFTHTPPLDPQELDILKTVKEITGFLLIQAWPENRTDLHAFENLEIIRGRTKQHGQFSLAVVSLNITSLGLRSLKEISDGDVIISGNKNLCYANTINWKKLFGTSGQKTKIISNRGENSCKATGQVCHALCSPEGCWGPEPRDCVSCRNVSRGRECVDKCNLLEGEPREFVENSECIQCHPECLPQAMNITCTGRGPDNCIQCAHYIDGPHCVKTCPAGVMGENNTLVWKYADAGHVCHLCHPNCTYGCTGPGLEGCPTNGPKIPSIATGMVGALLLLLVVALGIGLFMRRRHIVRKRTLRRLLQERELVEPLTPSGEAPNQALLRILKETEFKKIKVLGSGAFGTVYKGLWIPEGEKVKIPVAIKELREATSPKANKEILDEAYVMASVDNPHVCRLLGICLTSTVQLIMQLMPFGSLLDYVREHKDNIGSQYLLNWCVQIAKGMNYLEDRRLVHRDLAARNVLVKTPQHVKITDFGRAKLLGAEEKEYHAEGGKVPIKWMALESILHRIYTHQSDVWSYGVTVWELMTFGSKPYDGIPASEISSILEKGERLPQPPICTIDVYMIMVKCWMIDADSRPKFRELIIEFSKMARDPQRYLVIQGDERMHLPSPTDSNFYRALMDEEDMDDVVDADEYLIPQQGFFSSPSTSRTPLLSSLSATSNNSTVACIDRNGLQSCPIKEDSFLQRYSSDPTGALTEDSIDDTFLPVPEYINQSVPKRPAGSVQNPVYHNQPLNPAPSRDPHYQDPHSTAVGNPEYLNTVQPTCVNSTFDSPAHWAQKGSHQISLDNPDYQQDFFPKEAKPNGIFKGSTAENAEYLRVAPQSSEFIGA

On to `C#Cc1cc(N2CCCC2=O)nc2nc(Nc3ccc(N4CCN(C)CC4)cc3)ncc12` [Example 31, 1-(5-ethynyl-2-{[4-(4-methylpiperazin-1-yl)phenyl]amino}pyrido[2,3-d]pyrimidin-7-yl)pyrrolidin-2-one], for which the IC50 in assay [1] is less than 20 nM; in assay [2], 1000 to 10000 nM; in assay [3], 1000 to 3000 nM; in assay [4], 1000 to 3000 nM; in assay [5], greater than 3000 nM.
In the case of `C#Cc1cc(NC(=O)CCc2ccccc2)nc2nc(Nc3ccc(N4CCN(C)CC4)cc3)ncc12` [Example 32, N-(5-ethynyl-2-{[4-(4-methylpiperazin-1-yl)phenyl]amino}pyrido[2,3-d]pyrimidin-7-yl)-3-phenylpropanamide], the IC50 is less than 20 nM in assay [1]; 1000 to 10000 nM in assay [2]; 1000 to 3000 nM in assay [3]; 1000 to 3000 nM in assay [4]; greater than 3000 nM in assay [5].
Regarding `C#Cc1cc(NS(C)(=O)=O)nc2c1=CNC(Nc1ccc(N(C)CCN(C)C)cc1)N=2` (stereo not drawn) [Example 33], the IC50 in assay [1] was 20 to 100 nM; in assay [2] it was greater than 10000 nM; in assay [3], greater than 3000 nM; in assay [4] it was greater than 3000 nM; in assay [5], greater than 3000 nM.
Take `C#Cc1cc(-n2cc(C)cn2)nc2nc(Nc3ccc(N(C)CCN(C)C)cc3)ncc12` [Example 34, N^1-[2-(dimethylamino)ethyl]-N^4-[5-ethynyl-7-(4-methylpyrazol-1-yl)pyrido[2,3-d]pyrimidin-2-yl]-N^1-methylbenzene-1,4-diamine]: the IC50 in assay [1] was less than 20 nM; in assay [2] it was 1000 to 10000 nM; in assay [3] it was greater than 3000 nM; in assay [4], 1000 to 3000 nM; in assay [5], greater than 3000 nM.
In the case of `C#Cc1cc(-n2ccnc2)nc2nc(Nc3ccc(N4CCN(C)CC4)cc3)ncc12` [Example 35, 5-ethynyl-7-(imidazol-1-yl)-N-[4-(4-methylpiperazin-1-yl)phenyl]pyrido[2,3-d]pyrimidin-2-amine], the IC50 in assay [1] was less than 20 nM; in assay [2], less than 1000 nM; in assay [3] it was 1000 to 3000 nM; in assay [4] it was greater than 3000 nM; in assay [5] it was greater than 3000 nM.
`C#Cc1cc(-n2cccc2)nc2nc(Nc3ccc(N4CCN(C)CC4)cc3)ncc12` [Example 36, 5-ethynyl-N-[4-(4-methylpiperazin-1-yl)phenyl]-7-(pyrrol-1-yl)pyrido[2,3-d]pyrimidin-2-amine]: the IC50 is less than 20 nM in assay [1]; 1000 to 10000 nM in assay [2]; 1000 to 3000 nM in assay [3]; greater than 3000 nM in assay [4]; greater than 3000 nM in assay [5].
Consider `C#Cc1cc(NC(=O)N(C)C)nc2nc(Nc3ccc(N4CCN(C)CC4)cc3)ncc12` [Example 37, 1-(5-ethynyl-2-{[4-(4-methylpiperazin-1-yl)phenyl]amino}pyrido[2,3-d]pyrimidin-7-yl)-3,3-dimethylurea], for which the IC50 was 100 to 1000 nM in assay [1]; greater than 10000 nM in assay [2]; greater than 3000 nM in assay [3]; greater than 3000 nM in assay [4]; greater than 3000 nM in assay [5].
In the case of `C#Cc1cc(NC(=O)NC2CCCC2)nc2nc(Nc3ccc(N4CCN(C)CC4)cc3)ncc12` [Example 38, 1-cyclopentyl-3-(5-ethynyl-2-((4-(4-methylpiperazin-1-yl)phenyl)amino)pyrido[2,3-d]pyrimidin-7-yl)urea], the IC50 was less than 20 nM in assay [1]; less than 1000 nM in assay [2]; less than 500 nM in assay [3]; less than 500 nM in assay [4]; less than 500 nM in assay [5].
For the molecule `C#Cc1cc(NC(=O)NCc2ccccc2)nc2nc(Nc3ccc(N4CCN(C)CC4)cc3)ncc12` [Example 39, 1-benzyl-3-(5-ethynyl-2-{[4-(4-methylpiperazin-1-yl)phenyl]amino}pyrido[2,3-d]pyrimidin-7-yl)urea], the IC50 in assay [1] is less than 20 nM; in assay [2] it was less than 1000 nM; in assay [3] it was less than 500 nM; in assay [4], less than 500 nM; in assay [5], greater than 3000 nM.
As to `C#Cc1cc(NC(=O)NCC2CCCC2)nc2nc(Nc3ccc(N4CCN(C)CC4)cc3)ncc12` [Example 40, 3-(cyclopentylmethyl)-1-(5-ethynyl-2-{[4-(4-methylpiperazin-1-yl)phenyl]amino}pyrido[2,3-d]pyrimidin-7-yl)urea], the IC50 was less than 20 nM in assay [1]; less than 1000 nM in assay [2]; less than 500 nM in assay [3]; less than 500 nM in assay [4]; greater than 3000 nM in assay [5].
Regarding `C#Cc1cc(NC(=O)NC2CCC2)nc2nc(Nc3ccc(N4CCN(C)CC4)cc3)ncc12` [Example 41, 3-cyclobutyl-1-(5-ethynyl-2-{[4-(4-methylpiperazin-1-yl)phenyl]amino}pyrido[2,3-d]pyrimidin-7-yl)urea], the IC50 was less than 20 nM in assay [1]; less than 1000 nM in assay [2]; less than 500 nM in assay [3]; less than 500 nM in assay [4]; 1000 to 3000 nM in assay [5].
On to `C#Cc1cc(NC(=O)NC2CCOC2)nc2nc(Nc3ccc(N4CCN(C)CC4)cc3)ncc12` (stereo not drawn) [Example 42, 1-(5-ethynyl-2-{[4-(4-methylpiperazin-1-yl)phenyl]amino}pyrido[2,3-d]pyrimidin-7-yl)-3-(oxolan-3-yl)urea], for which the IC50 in assay [1] was less than 20 nM; in assay [2], less than 1000 nM; in assay [3] it was less than 500 nM; in assay [4] it was less than 500 nM; in assay [5] it was greater than 3000 nM.
With `C#Cc1cc(NC(=O)NC2COC2)nc2nc(Nc3ccc(N4CCN(C)CC4)cc3)ncc12` [Example 43, 1-(5-ethynyl-2-{[4-(4-methylpiperazin-1-yl)phenyl]amino}pyrido[2,3-d]pyrimidin-7-yl)-3-(oxetan-3-ylI)urea], the IC50 was less than 20 nM in assay [1]; less than 1000 nM in assay [2]; less than 500 nM in assay [3]; less than 500 nM in assay [4]; greater than 3000 nM in assay [5].
As for `C#Cc1cc(NC(=O)NC2CC2)nc2nc(Nc3ccc(N4CCN(C)CC4)cc3)ncc12` [Example 44, 3-cyclopropyl-1-(5-ethynyl-2-{[4-(4-methylpiperazin-1-yl)phenyl]amino}pyrido[2,3-d]pyrimidin-7-yl)urea], the IC50 was less than 20 nM in assay [1]; less than 1000 nM in assay [2]; less than 500 nM in assay [3]; less than 500 nM in assay [4]; 1000 to 3000 nM in assay [5].
With `C#Cc1cc(NC(=O)NCc2cnco2)nc2nc(Nc3ccc(N4CCN(C)CC4)cc3)ncc12` [Example 45, 1-(5-ethynyl-2-{[4-(4-methylpiperazin-1-yl)phenyl]amino}pyrido[2,3-d]pyrimidin-7-yl)-3-(1,3-oxazol-5-ylmethyl)urea], the IC50 in assay [1] is 20 to 100 nM; in assay [2], less than 1000 nM; in assay [3] it was 500 to 1000 nM; in assay [4] it was 1000 to 3000 nM; in assay [5], greater than 3000 nM.
